What is called Kd is the constant that tells how readily two partners part at equilibrium. Read a low Kd as higher affinity.

Structures are written as SMILES.

Here are results for five molecules from publication PMC10466336, “Chemical Probe for Imaging of Polo-like Kinase 4 and Centrioles” (JACS Au, 2023).

In test [1] the target is T1, 6xHis-tagged Plk4 kinase domain (KD) (Homo sapiens, UniProt O00444).
T1 construct: Plasmids encoding fragments of Plk4 kinase domain (2-275) with 6xHis-tag were cloned in pET system vectors; made in house; host or cells: E. coli BL21 gold (DE3)
T1 sequence (O00444 2-275): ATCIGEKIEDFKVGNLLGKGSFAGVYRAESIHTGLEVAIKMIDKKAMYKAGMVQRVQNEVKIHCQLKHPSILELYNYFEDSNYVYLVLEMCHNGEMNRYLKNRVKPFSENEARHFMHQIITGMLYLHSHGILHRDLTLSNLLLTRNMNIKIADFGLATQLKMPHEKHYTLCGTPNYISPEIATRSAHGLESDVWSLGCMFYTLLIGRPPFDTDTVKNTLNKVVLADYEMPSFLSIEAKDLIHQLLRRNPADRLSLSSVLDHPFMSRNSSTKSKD
The test is described as follows: Estimation of fluorescence increase (fluorogenicity) with Plk4 kinase domain versus BSA. As to conditions: mean of F(+Plk4KD)/F(+BSA) and standard deviation, N = 3; probe 3 µM, 1 h 37 °C. An excerpt:
Moreover, we substituted the basic acetyl-piperazine nitrogen in compounds (1 and 2a) with an acetyl-piperidine, to avoid probe protonation and accumulation in endolysosomal compartments (Figure S1A, B).[23] This yielded a second generation of centrinone-based probes (compounds 2b–d). These probes were characterized first in vitro by measuring their fluorogenicity in the presence of the 6xHis-tagged Plk4 kinase domain (KD) (Table 1). […] Next, we measured the binding affinities of the probes to the Plk4 kinase domain via a competition binding assay based on fluorescence polarization. […]
1.3.5 Estimation of fluorescence increase
The probes were analysed as described in Lukinavičius et al. 2014 1. Briefly, SiR650 or SiR595- […]
purified Plk4 kinase domain (10 µM in 20 mM Tris, 200 mM NaCl at pH 7.5) or to a bovine serum albumin (BSA) (Sigma) solution (0.2 mg/mL in 20 mM Tris, 200 mM NaCl at pH 7.5). Final concentration of the probe was 3 µM. The samples were incubated for 1 h at 37 °C, and fluorescence was measured in a 96-well plate (Greiner Bio-One) on a plate reader (TECAN Spark® 20M).
Fluorescence emission was recorded from 570 nm to 750 nm for SiR595 probes, and 630 nm to 750 nm for SiR650 while exciting at 550 nm ± 10 nm for SiR595 probes and at 610 ± 10 nm for SiR650 probes.
A fluorescence excitation scan was recorded by measuring the emission at 660 ± 10 nm for SiR595 and 720 ± 10 nm for SiR650 probes, while exciting from 500 nm to 640 nm for SiR595 probes and from […]

Test [2] has as its target T2, Plk4 kinase domain (Homo sapiens, UniProt O00444).
T2 construct: Plasmids encoding fragments of Plk4 kinase domain (2-275) with 6xHis-tag were cloned in pET system vectors; made in house; host or cells: E. coli BL21 gold (DE3)
T2 sequence (O00444 2-275): T1 sequence (O00444 2-275)
Nature of the test: Competition binding assay based on fluorescence polarization (tracer Alexa488-PEG-N-centrinone). As to conditions: Alexa488-PEG-N-centrinone 1 nM, Plk4-KD 5 nM. The text has this: Moreover, we substituted the basic acetyl-piperazine nitrogen in compounds (1 and 2a) with an acetyl-piperidine, to avoid probe protonation and accumulation in endolysosomal compartments (Figure S1A, B).[23] […] These probes were characterized first in vitro by measuring their fluorogenicity in the presence of the 6xHis-tagged Plk4 kinase domain (KD) (Table 1). […] Next, we measured the binding affinities of the probes to the Plk4 kinase domain via a competition binding assay based on fluorescence polarization. […]
1.3.6 Fluorescence Polarization assay & competition assay […]
plate (Greiner Bio-One). Upon mixture of protein and ligand, the plate was incubated for 30 min at room temperature followed by fluorescence polarization measurements by a plate reader (TECAN Spark® 20M) using 485 nm as excitation wavelength (bandwidth 20 nm) and 535 nm as emission wavelength (bandwidth 25 nm). The obtained fluorescence polarization values from each well were plotted against the concentration of the protein. The apparent Kd values were obtained by fitting the curve to the […]
FP = FP + FPmax ― FPmin (C + C + K ― (C + C + K )2 ― 4C C ) […]
protein should be around the Kd of the tracer to ensure that enough free protein that can bind the […]
competitor, and enough signal change coming from binding and unbinding of the tracer. The solution of the tracer and protein was titrated with increasing amounts of competitors, in our case SiR650- and […]
The mixture was then incubated for an hour at room temperature and the FP was then measured on a plate reader using the same conditions as mentioned before. From the obtained FP values, we have calculated the amount of free protein in the solution for each concentration of competitor using the equation of the single-site binding isotherm:
Pfree = Kd_tracer FP ― FP
Where Pfree is concentration of free protein, Kd tracer represents the previously determined binding affinity
(In general: In fluorescence polarisation assays a small probe gives low polarisation when free and higher when bound to something large.)

The target of test [3] is T3, endogenous Plk4 in HeLa cells expressing Centrin1-GFP (Homo sapiens, UniProt O00444).
T3 construct: live cell imaging of endogenous Plk4; endogenous in cells; host or cells: HeLa cells stably expressing Centrin1-GFP
T3 sequence (O00444 1-970): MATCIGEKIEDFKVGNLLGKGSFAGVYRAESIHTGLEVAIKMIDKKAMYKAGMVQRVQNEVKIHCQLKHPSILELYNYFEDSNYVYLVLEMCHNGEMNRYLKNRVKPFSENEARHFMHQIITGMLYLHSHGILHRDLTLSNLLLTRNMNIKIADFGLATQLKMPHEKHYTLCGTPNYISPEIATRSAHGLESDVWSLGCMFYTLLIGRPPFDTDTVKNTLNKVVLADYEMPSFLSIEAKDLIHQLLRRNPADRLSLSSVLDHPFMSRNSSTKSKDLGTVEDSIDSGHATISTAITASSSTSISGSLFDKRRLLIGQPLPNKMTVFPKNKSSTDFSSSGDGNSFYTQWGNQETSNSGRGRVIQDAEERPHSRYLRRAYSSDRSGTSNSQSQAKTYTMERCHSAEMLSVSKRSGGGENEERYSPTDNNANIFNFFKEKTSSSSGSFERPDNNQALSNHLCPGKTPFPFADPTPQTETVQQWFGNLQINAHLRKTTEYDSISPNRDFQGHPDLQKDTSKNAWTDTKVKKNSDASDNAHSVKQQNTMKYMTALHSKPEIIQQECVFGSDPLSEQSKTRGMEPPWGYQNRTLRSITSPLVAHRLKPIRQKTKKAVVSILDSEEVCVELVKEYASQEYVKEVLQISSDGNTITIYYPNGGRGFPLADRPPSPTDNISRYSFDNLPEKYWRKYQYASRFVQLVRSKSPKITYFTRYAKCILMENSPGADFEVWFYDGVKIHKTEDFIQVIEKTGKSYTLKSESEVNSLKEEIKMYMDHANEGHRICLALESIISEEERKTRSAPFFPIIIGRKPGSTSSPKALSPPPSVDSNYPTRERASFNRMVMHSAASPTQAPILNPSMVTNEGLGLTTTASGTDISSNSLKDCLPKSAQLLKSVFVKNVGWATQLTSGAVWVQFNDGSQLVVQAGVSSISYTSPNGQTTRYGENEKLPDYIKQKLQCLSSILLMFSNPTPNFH
The test is described as follows: Live- and fixed-cell confocal/STED imaging of endogenous Plk4. In kind it is cell-based. The conditions noted are these: added to live cells in culture, 1 µM (Figure S1).

Test [4] relates to HeLa cells expressing Centrin1-GFP. The test is described as follows: Centriole phenotypic scoring (number of Centrin1-GFP foci). As to conditions: 24 h incubation, scoring of Centrin1-GFP foci. The format is cell-based, human. An excerpt:
Having established that SiR595-centrinone (2d) can successfully label overexpressed Plk4, we wanted to investigate whether it also marks endogenous Plk4. […] In contrast, partial Plk4 inhibition leads to increased levels of centriolar Plk4 due to partial interference with protein degradation mediated by autophosphorylation, overall resulting in centriole overamplification.[8] Therefore, both under-duplication and overamplification of centrioles can be used as a proxy for SiR595-centrinone binding to endogenous Plk4. […] We conclude that the failure of SiR595-centrinone (2d) to detect endogenous Plk4 is due to the low binding affinity of the probe in combination with low protein levels. […] In the second step, the Plk4-bound molecule is specifically reacted with an appropriate fluorogenic tetrazine dye.[27]−[33] This strategy was applied previously successfully to label various protein targets in live and fixed cells,[30],[32],[34]−[38] and we reasoned that a smaller and potentially more permeable Cen-TCO (3) derivative would likewise enable more efficient labeling of endogenous Plk4.
We conjugated trans-cyclooctene to the previously obtained compound (4) to obtain Cen-TCO (3) using the synthetic route outlined in Scheme S2. The resulting Cen-TCO (3) reacted with an appropriate tetrazine, such as SiR650-TetH (4a) (Figure S4A). The reaction was followed by LC-MS, and the data confirmed quantitative conversion of Cen-TCO (3) to the appropriate cycloaddition product Cen-Click-SiR650 (Figure S4A, D). […] To assess the phenotype caused by Cen-TCO (3), we incubated HeLa cells expressing Centrin1-GFP with different concentrations of Cen-TCO (3) for 24 h, followed by scoring of Centrin1-GFP foci numbers (Figure S5B). […] Despite the high unspecific background signal, a clear focus could be detected at centrioles (Figure 4B). […] The fwhm of the circular signal in this case was 368 ± 26 (N = 6) (Figure S7B), which corresponds to the size measured with overexpressed GFP-Plk4(K41M) (see Figure 3D), and approximately that of the torus region surrounding the centriole.[40] […]

Turning to `COc1c(Nc2cc(C)[nH]n2)nc(Sc2ccc(S(=O)(=O)Cc3cccc([N+](=O)[O-])c3F)cc2F)nc1N1CCN(CC(=O)NCCOCCNC(=O)c2ccc(C(=O)O)c(C3=C4C=CC(=N)C=C4[Si](C)(C)c4cc(N)ccc43)c2)CC1` [2a], the FPIk4/FBSA in test [1] was 10 ± 1. In test [2], this molecule registered a Kd of 26 ± 3 nM. For the same molecule, in test [3], the “unspecific labeling in live human cells” value is “high unspecific labeling”.

Turning to `COc1c(Nc2cc(C)[nH]n2)nc(Sc2ccc(S(=O)(=O)Cc3cccc([N+](=O)[O-])c3F)cc2F)nc1N1CCC(CC(=O)NCCOCCNC(=O)c2ccc(C(=O)O)c(C3=C4C=CC(=N)C=C4[Si](C)(C)c4cc(N)ccc43)c2)CC1` [2b], the FPIk4/FBSA in test [1] was 23 ± 1. The molecule further had a Kd in test [2] of 14 ± 4 nM.

Consider `COc1c(Nc2cc(C)[nH]n2)nc(Sc2ccc(S(=O)(=O)Cc3cccc([N+](=O)[O-])c3F)cc2F)nc1N1CCC(CC(=O)NCCCCNC(=O)c2ccc(C(=O)O)c(C3=C4C=CC(=N)C=C4[Si](C)(C)c4cc(N)ccc43)c2)CC1` [2c], for which the FPIk4/FBSA in test [1] is given as 14 ± 2. Further, in test [2], the affinity, expressed as Kd, was 23 ± 6 nM.

Turning to `COc1c(Nc2cc(C)[nH]n2)nc(Sc2ccc(S(=O)(=O)Cc3cccc([N+](=O)[O-])c3F)cc2F)nc1N1CCOCC1` [centrinone, reference compound], the “concentration causing the centriole under-duplication phenotype” value in test [4] is ≥ 250 nM.

For the molecule `COc1c(Nc2cc(C)[nH]n2)nc(Sc2ccc(S(=O)(=O)Cc3cccc([N+](=O)[O-])c3F)cc2F)nc1N1CCN(CC(=O)NCCOCCNC(=O)c2ccc(C(=O)[O-])c(C3=C4C=CC(=[N+](C)C)C=C4[Si](C)(C)c4cc(N(C)C)ccc43)c2)CC1` [compound 1], in test [1], the FPIk4/FBSA is 4 ± 1. In addition, the Kd in test [2] turned out to be 48 ± 6 nM. In addition, in test [3], the “unspecific labeling in live human cells” value is reported as “high unspecific labeling”.
